Read-outs that look alike come from different tables or passages of the source.
Assays:
Aurora A = test system: Aurora A; design: method as in PMID 22935731; details: Aurora A autophosphorylation, nocodazole-arrested HeLa cells; read-out: Cellular PD marker IC50 (95% confidence limits); cited from earlier work
VEGFR3 [1] = test system: VEGFR3; design: method as in PMID 22935731; details: read-out: Cellular PD marker IC50 (95% confidence limits); cited from earlier work
Aurora B [2] = test system: Aurora B; design: method as in PMID 22935731; details: 1 mM ATP; read-out: Biochemical IC50 (95% confidence limits); cited from earlier work
PDGFR-α = test system: PDGFR-α; design: method as in PMID 22935731; details: PDGFR-α cellular phosphorylation, ligand stimulated; read-out: Cellular PD marker IC50 (95% confidence limits); cited from earlier work
Aurora B [3] = test system: Aurora B; design: method as in PMID 22935731; details: phosphorylation of histone H3, read-out: Cellular PD marker IC50 (95% confidence limits); cited from earlier work
PDGFR-β = test system: PDGFR-β; design: method as in PMID 22935731; details: 1 mM ATP; read-out: Biochemical IC50 (95% confidence limits); cited from earlier work
[4] = Dose escalation: dose-limiting toxicities and MTD; format: in vivo
From the text: Dose escalation was first conducted in Arm I and subsequently in Arms II and III. […] The pre-specified DLT criteria included any of the following events graded according to the Common Terminology Criteria for Adverse Events (CTCAE) version 4.0 considered ‘possibly’ or ‘probably’ related to the administration of ilorasertib in cycle 1: grade 4 absolute neutrophil count (ANC) decrease for >7 days or grade ≥ 3 ANC decrease with fever; grade 4 platelet count decrease; grade ≥ 3 proteinuria; grade 4 infusion reaction; grade ≥ 3 asthenia/fatigue; grade 3 nausea/vomiting for ≥48 h or diarrhoea for ≥72 h despite maximum supportive care; grade ≥ 2 neurotoxicity; unexpected grade 2 toxicity which required dose modification or delay of ≥1 week. Given the known adverse effects of VEGFR2 inhibition, specific criteria for hypertension were included: >150/100 mm Hg despite 2 weeks of clinically appropriate intervention, or severe hypertension at any blood pressure reading defined as systolic >200 mm Hg or diastolic > 110 mm Hg, or symptomatic hypertension at any reading; and for decline in left ventricular ejection fraction included: absolute decline >20% from baseline and/or a reduction to <39%. Except for the above categories, all grade ≥ 3 adverse events (AEs) without a definitive alternative etiology were also considered DLTs. AEs detected or worsened in cycle 2 and beyond could be incorporated into dose-escalation decisions at discretion of the investigators and study team.
The MTD was to be continually re-estimated by a logistic regression model as the dose at which the predicted DLT rate would be 30%. For the three arms, dose-escalation decisions were made after the patient(s) in a cohort completed dosing in cycle 1.
In Arm I, dosing commenced at 10 mg PO QD and was escalated to 180 mg PO QD. This initial starting dose was calculated using 1/6 of the highest non-severely toxic dose in dogs converted to human equivalent dose, using body surface area scaling and assuming a 60-kg human. Because of uncertainty of food effects on pharmacokinetics and the […] schedule, treatment was administered in a fasted state. […] Enrolment to Arm I was discontinued, on the basis of the protocol-specified continual reassessment method on which MTD was to be determined. […] This schedule was selected due to the anticipated lower maximum observed plasma concentration (Cmax) and greater total exposure, and the possibility that tolerability would be improved under these conditions. Dose escalation proceeded in Arm II, starting at 40 mg PO BID, and stopped at the 340-mg PO BID dose, since this dose met the protocol criteria for exceeding the MTD. The first dose was administered in the fasted state. The second dose of the treatment day was administered at least 4 h after a small meal. […]

VEGFR1 = test system: VEGFR1; design: method as in PMID 22935731; details: 1 mM ATP; read-out: Biochemical IC50 (95% confidence limits); cited from earlier work
VEGFR3 [5] = test system: VEGFR3; design: method as in PMID 22935731; details: 1 mM ATP; read-out: Biochemical IC50 (95% confidence limits); cited from earlier work

Nc1ncc(-c2cnn(CCO)c2)c2scc(-c3ccc(NC(=O)Nc4cccc(F)c4)cc3)c12 [ilorasertib, Ilorasertib]
IC50 (Aurora A): […] | IC50 (VEGFR3 [1]): 2 nM | IC50 (Aurora B [2]): […] | IC50 (PDGFR-α): 16 nM | IC50 (Aurora B [3]): […] | IC50 (PDGFR-β): […] | Dose that met the protocol criteria for exceeding the MTD ([4]; Arm I, PO QD): 180 mg | Dose that met the protocol criteria for exceeding the MTD ([4]; Arm II, PO BID): 340 mg | Patients who experienced DLTs ([4]; human, in vivo, 1 cycle): 10% | Total number of DLTs ([4]; in vivo): ten | IC50 (VEGFR1): 1 nM | IC50 (VEGFR3 [5]): 43 nM
